Residues, ends and D or L forms follow the SMILES beside them. *: point of attachment. Palmitoyl = CCCCCCCCCCCCCCCC(=O)*
Tests used:
[1] = Ex vivo skin penetration study (Franz cell, magnetic arrays moved above epidermis); assay type: in vitro ADME, human; conditions: arrays 1 (uni-directional, 27 mT) and 2 (bi-directional, overall 21 mT) of Table 1; 400 μg/ml in 50:50 PG:PB pH 4
Procedure: An ex vivo skin penetration study was conducted to compare the ability of different magnetic arrays to enhance penetration of Pal-KTTKS (SEQ ID NO: 1) into the epidermis of human skin. The dermis and epidermis of human skin samples obtained from donors aged 60-65 years were heat separated and the dermis discarded. 20 μL of a Pal-KTTKS (SEQ ID NO: 1) containing composition (400 μg/ml in 50:50 PG:PB at pH 4) was placed on human epidermis in Franz cell. Different magnetic arrays were positioned approximately 1.0 mm above the epidermis samples and moved over the samples at the speed a user might move a cosmetic applicator when applying a skin care product (e.g., about 20-25 cm/sec). Samples were taken and measured at 0, 1, 2, 4, 6, 8, 24 hours. […] For the bi-directional arrays herein, the “1st layer” refers to the layer closest to the skin-contacting surface of the applicator, and the “2nd layer” refers to the layer disposed on the side of the 1st layer opposite the side closest to the skin-contacting surface.

[2] = In vivo skin penetration study #1, Tape Stripping method (active magnetic array vs passive finger application); parameters: species or system human
Procedure: An in vivo skin penetration study was conducted to establish the effect of using a skin care product of the present invention by applying a skin care composition comprising Pal-KTTKS (SEQ ID NO: 1) with an applicator comprising a magnetic array. The study compared the penetration of the Pal-KTTKS (SEQ ID NO: 1) in combination with a variety of magnetic arrays (active application) to the penetration of Pal-KTTKS (SEQ ID NO: 1) applied with a finger (passive application). Penetration of Pal-KTTKS (SEQ ID NO: 1) in this example is determined according to the Tape Stripping method. In this example, the level of Pal-KTTKS (SEQ ID NO: 1) present in the extract from each tape strip was measured using HPLC and the results normalized to the protein level measured on the tape strip.
(§1) This method provides a suitable means of measuring the amount of skin care active present in skin, and comparing active versus passive application of the skin care active. Two identical rectangular areas of 15 cm^2 are marked on the volar forearms of volunteers. A measured dose (approximately 30 mg) of the Pal-KTTKS (SEQ ID NO: 1) formulation is applied to the delineated areas using a screw actuated syringe. Active application is carried out on one of the delineated areas using the three-quarter profile of a purpose made applicator (e.g., an applicator presenting one of the magnetic arrays set forth in Table 2). Passive application is accomplished on the other delineated area using the tip of a finger in a sweeping motion identical to that of the active application. The formulation is spread evenly across the entire delineated region using a sweeping motion with a fixed speed of approximately 23 cm/s to […]. The application period is 30 seconds during which time visual inspection is used to ensure even distribution and absorption of the formulation by skin. The application area is then left uncovered for a further 30 minutes to ensure complete absorption. Tape strip samples may be collected and/or analyzed immediately after the complete absorption is ensured or after a waiting period (e.g., after multiple applications of the formulation over multiple hours or days).
(§2) The tape stripping procedure is carried out using 10 commercial pre-cut 22.1 mm tape stripping adhesive discs (e.g., D-SQUAME brand tape strips, available from Cuderm Corporation, or equivalent) with an adhesive area of 3.8 cm^2. The 10 tape strips are applied sequentially to the same sampling site, which ideally enables each tape strip to obtain a sample from deeper within the stratum corneum than the tape strip that preceded it. A 22.1 mm diameter circular region is marked at the center of the application area. A tape stripping adhesive disc is placed over the marked area and even pressure applied using, for example, a neoprene roller, rolled ten times over the adhesive disc. The adhesive disc is removed from the skin surface in a single pulling motion using manual tweezers. To ensure even removal of the skin sample, subsequent discs are removed in a “north, south, east and west” orientation, which is within the skill of the ordinary artisan. Each adhesive disc is non-destructively analyzed for protein content using a suitable instrument (e.g., SquameScan™ 850 instrument commercially available from Heiland Electronics Wetzlar, Germany, or equivalent). The adhesive disc is then immediately placed into a glass vial containing extraction solvent in preparation for subsequent analysis. Solvent extractions are conducted on each tape strip using conventional extraction methods, which are well known to those of ordinary skill in the art, and measuring the amount of Pal-KTTKS (SEQ ID NO: 1) present in the extract, for example, by high performance liquid chromatography (“HPLC”) and/or mass spectrometry.
The procedure is repeated for the remaining nine strips. An additional strip is obtained from outside the area of application of the skin care formulation to serve as a blank sample. […]

[3] = In vivo skin penetration study #2, Tape Stripping method (magnetic vs non-magnetic applicator); parameters: species or system human
Procedure: as §1, §2
The procedure is repeated for the remaining nine strips. An additional strip is obtained from outside the area of application of the skin care formulation to serve as a blank sample. The amount of active is normalized to the amount of protein measured. […]

[4] = Diamagnetic susceptibility; assay type: physicochemical; conditions: dimensionless
[5] = magnetic applicator with array #8, average across all 10 test sites, in ng (unit assumed)
[6] = non-magnetic applicator, average across all 10 test sites, in ng (unit assumed)

Enhancement (active/passive) ([2]; array #4, tape strips 2-4, from average values of Table 11): 1.54 | Enhancement (active/passive) ([2]; array #4, tape strips 5-7, from average values of Table 11): 2.18 | Enhancement (active/passive) ([2]; array #4, tape strips 8-10, from average values of Table 11): 2.98 | Enhancement (active/passive) ([2]; array #9, tape strips 2-4, from average values of Table 9): 4.19 | Enhancement (active/passive) ([2]; array #9, tape strips 5-7, from average values of Table 9): 2.38 | Enhancement (active/passive) ([2]; array #9, tape strips 8-10, from average values of Table 9): 3.78 | Enhancement value Strips 2-10 (active/passive), Avg ([3]; array #8 vs non-magnetic applicator, average of the enhancement values of all test sites): 4 | Sum 2-10 of Pal-KTTKS recovered, active application, Avg [3, 5]: 42.02 | Sum 6-10 of Pal-KTTKS recovered, active application, Avg [3, 5]: 22.74 | Sum 2-10 of Pal-KTTKS recovered, passive application, Avg [3, 6]: 20.55 | Sum 6-10 of Pal-KTTKS recovered, passive application, Avg [3, 6]: 10.01 | diamagnetic susceptibility [4]: approximately −519
SMILES: CCCCCCCCCCCCCCCC(=O)N[C@@H](CCCCN)C(=O)N[C@H](C(=O)N[C@H](C(=O)N[C@@H](CCCCN)C(=O)N[C@@H](CO)C(=O)O)[C@@H](C)O)[C@@H](C)O [Pal-KTTKS, palmitoyl-lysine-threonine-threonine-lysine-serine] (Palmitoyl-KTTKS-OH; C-terminus assumed)
penetration enhancement of Pal-KTTKS into human epidermis [1]: demonstrated the best penetration enhancement | penetration enhancement compared with other magnetic arrays ([2]; magnetic array #4 (uni-directional)): better penetration enhancement than some of the other magnetic arrays tested | penetration enhancement compared with other magnetic arrays ([2]; magnetic array #9 (bi-directional)): better penetration enhancement than some of the other magnetic arrays tested

Reference: patent publication US10034827B2, “Skin care product and method of use” (The Procter & Gamble Company, priority 2014, dated 2018)
